# Laboratory results: patent US10329289B2, “6,7-dihydro-5H-pyrrolo[3,4-B]pyridin-5-one allosteric modulators of the M4 muscarinic acetylcholine receptor” (Merck Sharp & Dohme Corp., priority 2015, dated 2019)
# Target: T1, human M4 muscarinic acetylcholine receptor (Homo sapiens, UniProt P08173)
# T1 construct: expressed in transfected cells; host or cells: CHO-K1
# T1 sequence (P08173 1-479): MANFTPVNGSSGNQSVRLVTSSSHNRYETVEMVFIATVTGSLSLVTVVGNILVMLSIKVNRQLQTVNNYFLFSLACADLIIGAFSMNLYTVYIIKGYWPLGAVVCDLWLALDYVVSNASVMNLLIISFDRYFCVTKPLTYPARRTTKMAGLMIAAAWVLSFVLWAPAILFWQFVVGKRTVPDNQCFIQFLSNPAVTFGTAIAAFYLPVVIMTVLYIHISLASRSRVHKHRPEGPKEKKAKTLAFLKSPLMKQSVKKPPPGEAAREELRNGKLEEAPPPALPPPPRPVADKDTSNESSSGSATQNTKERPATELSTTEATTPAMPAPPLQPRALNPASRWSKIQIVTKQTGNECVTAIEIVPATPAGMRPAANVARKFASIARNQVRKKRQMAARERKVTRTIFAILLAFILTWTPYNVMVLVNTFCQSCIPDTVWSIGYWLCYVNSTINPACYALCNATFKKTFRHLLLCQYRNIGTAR
# Assay: human FLIPR-based M4 PAM assay (Ca2+ mobilization, CHO-K1 cells with human M4 receptor and Gαqi5)
# Assay type: cell-based
# Details: acetylcholine at 20% of maximum response, read-out: M4 PAM IP
# Protocol: In a typical experiment the M4 muscarinic acetylcholine receptor modulating activity of the compounds of the present invention was determined in accordance with the following experimental method. CHO-K1 cells stably transfected with human M4 receptor and chimeric G-protein Gαqi5 (Coward P, et al., Analytical Biochemistry, 270:242-248 (1999)) are thawed from liquid N2 storage, resuspended in growth medium, plated in black, clear bottom 384 well plates, and incubated 16-20 hours at 37° C., 5% CO2. On the day of assay, growth medium is removed, the cells are washed 2 times with wash buffer, and cells are incubated in dye loading buffer at 37° C., 5% CO2 for ˜1 hour. […] Next, 10 uL of acetylcholine is added (final concentration calculated so as to achieve 20% of the maximum acetycholine response), and the fluorescence reading is continued for 3.5 min. In some cases, a third addition of acetylcholine (final concentration calculated to achieve 70% of the maximal acetylcholine response) is performed. The resulting dose response curves are fit to a 4 parameter logistic equation and the final result is determined as the inflection point (IP) of the curve
# CHO-K1 cells stably transfected with human M4 receptor and chimeric G-protein Gαqi5 are thawed from liquid N2 storage, resuspended in growth medium, plated in black, clear bottom 384 well plates, and incubated 16-20 hours at 37° C., 5% CO2.
# On the day of assay, growth medium is removed, the cells are washed 2 times with wash buffer, and cells are incubated in dye loading buffer at 37° C., 5% CO2 for ˜1 h. […] Next, 10 uL of acetylcholine is added (final concentration calculated so as to achieve 20% of the maximum acetycholine response), and the fluorescence reading is continued for 3.5 min. In some cases, a third addition of acetylcholine (final concentration calculated to achieve 70% of the maximal acetylcholine response) is performed.
row,EC50 [nM],Molecule
1,168,"3-methyl-2-(4-(3,3,3- trifluoro-2- hydroxypropoxy)piperi- din-1-yl)-6,7-dihydro- 5H-pyrrolo[3,4- b]pyridin-5-one [Example 179]"
2,30,"Cc1cc2c(nc1N1CC[C@@H](Oc3cccc(C#N)c3)[C@@H](F)C1)CNC2=O (relative stereo) [Example 7, 3-((cis-3-fluoro-1-(3-methyl-5-oxo-6,7-dihydro-5H-pyrrolo[3,4-b]pyridin-2-yl)piperidin-4-yl)oxy)benzonitrile]"
3,86,"COc1ccc(O[C@@H]2CCN(c3nc4c(cc3C)C(=O)NC4)C[C@H]2C)cn1 (single isomer, unassigned) [Example 2A]"
4,734,"COc1ccc(O[C@H]2CCN(c3nc4c(cc3C)C(=O)NC4)C[C@@H]2C)cn1 (single isomer, unassigned) [Example 2B]"
5,637,"Cc1cc2c(nc1N1CCC(OC[C@@H]3C[C@H]3C(F)(F)F)CC1)CNC2=O (single isomer, unassigned) [Example 3A, 3-methyl-2-(4-(((trans)-2-(trifluoromethyl)cyclopropyl)methoxy)piperidin-1-yl)-6,7-dihydro-5H-pyrrolo[3,4-b]pyridin-5-one]"
6,82,"Cc1cc2c(nc1N1CCC(Oc3ccc(O[C@H](C)CO)nc3)CC1)CNC2=O (single isomer, unassigned) [Example 141A]"
7,55,"Cc1cc2c(nc1N1CCC(Oc3ccc(O[C@@H](C)CO)nc3)CC1)CNC2=O (single isomer, unassigned) [Example 141B]"
8,124,"Cc1cc2c(nc1N1CCC(Oc3ccc([C@@H](C)O)cc3)CC1)CNC2=O (single isomer, unassigned) [Example 150A]"
9,197,"Cc1cc2c(nc1N1CCC(Oc3ccc([C@H](C)O)cc3)CC1)CNC2=O (single isomer, unassigned) [Example 150B]"
10,452,"Cc1cc2c(nc1N1CCC(Oc3ccccc3)C(F)(F)C1)CNC2=O (single isomer, unassigned) [Example 158A, cis-2-(3,3-Difluoro-4-phenoxypiperidin-1-yl)-3-methyl-6,7-dihydro-5H-pyrrolo[3,4-b]pyridin-5-one]"
11,17,"Cc1cc2c(nc1N1CCC(Oc3ccccc3)C(F)(F)C1)CNC2=O (single isomer, unassigned) [Example 158B, trans-2-(3,3-Difluoro-4-phenoxypiperidin-1-yl)-3-methyl-6,7-dihydro-5H-pyrrolo[3,4-b]pyridin-5-one]"
12,627,"Cc1cc2c(nc1N1CCC(OC[C@]3(C)C[C@@H]3F)CC1)CNC2=O (single isomer, unassigned) [Example 160A]"
13,96,"Cc1cc2c(nc1N1CCC(OC[C@@]3(C)C[C@H]3F)CC1)CNC2=O (single isomer, unassigned) [Example 160B]"
14,58,"Cc1cc2c(nc1N1CCC(OC[C@]3(C)C[C@H]3F)CC1)CNC2=O (single isomer, unassigned) [Example 160C]"
15,37,"Cc1cc2c(nc1N1CCC(OC[C@@]3(C)C[C@@H]3F)CC1)CNC2=O (single isomer, unassigned) [Example 160D]"
16,467,"Cc1cc2c(nc1N1CC[C@H](Oc3cccnc3)[C@H](F)C1)CNC2=O (single isomer, unassigned) [Example 165, 2-((3R,4S) or (3S,4R)-3-fluoro-4-(pyridin-3-yloxy)piperidin-1-yl)-3-methyl-6,7-dihydro-5H-pyrrolo[3,4-b]pyridin-5-one]"
17,90,"Cc1cc2c(nc1N1CC[C@@H](Oc3cccnc3)[C@@H](F)C1)CNC2=O (single isomer, unassigned) [Example 166, 2-((3S,4R) or (3R,4S)-3-fluoro-4-(pyridin-3-yloxy)piperidin-1-yl)-3-methyl-6,7-dihydro-5H-pyrrolo[3,4-b]pyridin-5-one]"
18,209,"Cc1cc2c(nc1N1CCC(Oc3ccc4c(c3)C[S+]([O-])C4)CC1)CNC2=O (single isomer, unassigned) [Example 168A]"
19,166,"Cc1cc2c(nc1N1CCC(Oc3ccc4c(c3)C[S+]([O-])C4)CC1)CNC2=O (single isomer, unassigned) [Example 168B]"
20,55,"Cc1cc2c(nc1N1CCC(OCC(O)C(F)(F)F)CC1)CNC2=O (single isomer, unassigned) [Example 181A]"

row,EC50 [nM],Molecule
1,183,"Cc1cc2c(nc1N1CCC(OCC(O)C(F)(F)F)CC1)CNC2=O (single isomer, unassigned) [Example 181B]"
2,1470,"Cc1cc2c(nc1N1CCC(OCC3(C)CC3C#N)CC1)CNC2=O (single isomer, unassigned) [Example 191A]"
3,30000,"Cc1cc2c(nc1N1CCC(OCC3(C)CC3C#N)CC1)CNC2=O (single isomer, unassigned) [Example 191B]"
4,312,"Cc1cc2c(nc1N1CCC(OCC3(C)CC3C#N)CC1)CNC2=O (single isomer, unassigned) [Example 193A]"
5,875,"Cc1cc2c(nc1N1CCC(OCC3(C)CC3C#N)CC1)CNC2=O (single isomer, unassigned) [Example 193B]"
6,304,"CCc1cc2c(nc1N1CC[C@@H](Oc3cccnc3)[C@@H](F)C1)CNC2=O (single isomer, unassigned) [Example 215]"
7,888,"CCc1cc2c(nc1N1CC[C@@H](Oc3cccnc3)[C@@H](F)C1)CNC2=O (single isomer, unassigned) [Example 216, 3-ethyl-2-((3R,4S)- or (3S,4R)-3-fluoro-4-(pyridin-3-yloxy)piperidin-1-yl)-6,7-dihydro-5H-pyrrolo[3,4-b]pyridin-5-one]"
8,78,"CCOc1ccc(OC2CCN(c3nc4c(cc3C)C(=O)N[C@@H]4CCO)CC2)cn1 (single isomer, unassigned) [Example 234B]"
9,87,"Cc1cc2c(nc1N1CCC(Oc3ccc4c(c3)COC4)CC1)CN(CC(C)O)C2=O (single isomer, unassigned) [Example 238A, (R) or (S)-2-(4-((1,3-dihydro-2-benzofuran-5-yl)oxy)piperidin-1-yl)-6-(2-hydroxypropyl)-3-methyl-6,7-dihydro-5H-pyrrolo[3,4-b]pyridin-5-one]"
10,108,"COc1ccc(OC2CCN(c3nc4c(cc3C)C(=O)N([C@H](C)CO)C4)CC2)cn1 (single isomer, unassigned) [Example 264B]"
11,40,"COc1ccc(OC2CCN(c3nc4c(cc3C)C(=O)N([C@@H](C)CO)C4)CC2)cn1 (single isomer, unassigned) [Example 264C]"
12,941,"COc1ccc(OC2CCN(c3nc4c(cc3C)C(=O)N[C@H]4CO)CC2)cn1 (single isomer, unassigned) [Example 271A]"
13,38,"COc1ccc(OC2CCN(c3nc4c(cc3C)C(=O)N[C@@H]4CO)CC2)cn1 (single isomer, unassigned) [Example 271B]"
14,4500,"COc1ccc(OC2CCN(c3nc4c(cc3C)C(=O)N(C)[C@H]4CO)CC2)cn1 (single isomer, unassigned) [Example 273A]"
15,23,"COc1ccc(OC2CCN(c3nc4c(cc3C)C(=O)N(C)[C@@H]4CO)CC2)cn1 (single isomer, unassigned) [Example 273B]"
16,3870,"COc1ccc(OC2CCN(c3nc4c(cc3C)C(=O)N(C)[C@@]4(C)CO)CC2)cn1 (single isomer, unassigned) [Example 287A]"
17,214,"COc1ccc(OC2CCN(c3nc4c(cc3C)C(=O)N(C)[C@]4(C)CO)CC2)cn1 (single isomer, unassigned) [Example 287B]"
18,22,"Cc1cc2c(nc1N1CCC(Oc3ccc4c(c3)C[C@@H](O)C4)CC1)CNC2=O (single isomer, unassigned) [Example 324A]"
19,28,"Cc1cc2c(nc1N1CCC(Oc3ccc4c(c3)C[C@H](O)C4)CC1)CNC2=O (single isomer, unassigned) [Example 324B]"
20,1140,"Cc1cc2c(nc1N1CCC(Oc3cnc4c(c3)CC[C@@H]4O)CC1)CNC2=O (single isomer, unassigned) [Example 324C]"

row,Molecule,EC50 [nM]
1,"COc1ccc(OC2[C@@H]3C[C@H]2CN(c2nc4c(cc2C)C(=O)NC4)C3)cn1 (single isomer, unassigned) [Example 185A]",8630
2,"COc1ccc(OC2[C@@H]3C[C@H]2CN(c2nc4c(cc2C)C(=O)NC4)C3)cn1 (single isomer, unassigned) [Example 185B]",2530
